In brackets after ≈: the same amount, converted by molar mass.
Assay: physchem
Format: physicochemical
Details: water
Text: Conjugating dexamethasone to a water-soluble polymer makes dexamethasone water soluble, which allows for more consistent dispensing. […] As further shown in FIG. 22D, dispensing of the solution of 18 without a crosslinking agent (left panel) and with a crosslinking agent (right panel) was consistent and performed without difficulty.

- solubility: 50 µg/mL (≈ 127 µM)
SMILES: C[C@@H]1C[C@H]2[C@@H]3CCC4=CC(=O)C=C[C@]4(C)[C@@]3(F)[C@@H](O)C[C@]2(C)[C@@]1(O)C(=O)CO [dexamethasone]

— patent US20220202322A1, “DRUG RELEASE COMPOSITIONS AND METHODS FOR DELIVERY” (ABBOTT DIABETES CARE INC., priority 2020, published 2022)
